From PubChem BioAssay AID248 (DTP/NCI, 2004)
Several values for one entry are separate records, joined by “and”; a condition that tells them apart may be missing. Equal entries are not always repeated. Toxic doses and inconclusive results are not listed.

Test system: L1210 leukemia ip in BDF1 mice, survival T/C
Assay: NCI In Vivo Anticancer Drug Screen. Data for tumor model L1210 Leukemia (intraperitoneal) in B6D2F1 (BDF1) mice
Settings: endpoint: mean survival time, higher = longer survival
How it was run: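 Mice bearing the transplanted tumor received compound or vehicle. Survival of the treated group was divided by that of the vehicle-treated control group to give the ratio.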

[1] = dose: 50.0 mg/kg/injection, schedule: Q01DX001 (ip), vehicle: carboxymethylcellulose (CMC)
[2] = dose: 100.0 mg/kg/injection, schedule: Q01DX001 (ip), vehicle: carboxymethylcellulose (CMC)
[3] = dose: 200.0 mg/kg/injection, schedule: Q01DX001 (ip), vehicle: carboxymethylcellulose (CMC)
[4] = dose: 400.0 mg/kg/injection, schedule: Q01DX001 (ip), vehicle: carboxymethylcellulose (CMC)
[5] = dose: 50.0 mg/kg/injection, schedule: Q01DX009 (ip), vehicle: Klucel (hydroxypropylcellulose) (HPC)
[6] = dose: 50.0 mg/kg/injection, schedule: Q04DX003 (ip), vehicle: Klucel (hydroxypropylcellulose) (HPC)
[7] = dose: 100.0 mg/kg/injection, schedule: Q01DX009 (ip), vehicle: Klucel (hydroxypropylcellulose) (HPC)
[8] = dose: 100.0 mg/kg/injection, schedule: Q04DX003 (ip), vehicle: Klucel (hydroxypropylcellulose) (HPC)
[9] = dose: 200.0 mg/kg/injection, schedule: Q04DX003 (ip), vehicle: Klucel (hydroxypropylcellulose) (HPC)
[10] = dose: 100.0 mg/kg/injection, schedule: Q01DX009 (ip), vehicle: saline with Tween-80
[11] = dose: 50.0 mg/kg/injection, schedule: Q01DX001 (ip), vehicle: saline
[12] = dose: 100.0 mg/kg/injection, schedule: Q01DX001 (ip), vehicle: saline
[13] = dose: 200.0 mg/kg/injection, schedule: Q01DX001 (ip), vehicle: saline
[14] = dose: 400.0 mg/kg/injection, schedule: Q01DX001 (ip), vehicle: saline
[15] = dose: 12.5 mg/kg/injection, schedule: Q01DX009 (ip), vehicle: Klucel (hydroxypropylcellulose) (HPC)
[16] = dose: 25.0 mg/kg/injection, schedule: Q01DX009 (ip), vehicle: Klucel (hydroxypropylcellulose) (HPC)
[17] = dose: 400.0 mg/kg/injection, schedule: Q04DX003 (ip), vehicle: Klucel (hydroxypropylcellulose) (HPC)

SMILES: COC1=C(NCc2ccco2)C(=O)C(OC)=C(NCc2ccco2)C1=O
- T/C [1]: 96 % of control
- T/C [2]: 91 % of control
- T/C [3]: 86 % of control
- T/C [4]: 96 % of control

SMILES: O=C(Oc1ccc(Cl)cc1Cl)Oc1ccc(Cl)cc1Cl
- T/C [1]: 98 % of control
- T/C [5]: 105 % of control
- T/C [6]: 98 % of control
- T/C [2]: 104 % of control
- T/C [7]: 100 % of control
- T/C [8]: 95 % of control
- T/C [3]: 104 % of control
- T/C (dose: 200.0 mg/kg/injection, schedule: Q01DX009 (ip), vehicle: Klucel (hydroxypropylcellulose) (HPC)): 103 % of control
- T/C [9]: 106 % of control
- T/C [4]: 93 % of control

SMILES: CCN(CC)CCCC(C)NC(=O)c1ccc(N(C)C)nc1 (stereo unspecified)
- T/C (dose: 25.0 mg/kg/injection, schedule: Q01DX009 (ip), vehicle: water): 97 % of control
- T/C (dose: 50.0 mg/kg/injection, schedule: Q01DX009 (ip), vehicle: water): 104 % of control
- T/C (dose: 100.0 mg/kg/injection, schedule: Q01DX009 (ip), vehicle: water): 101 % of control
- T/C (dose: 200.0 mg/kg/injection, schedule: Q01DX009 (ip), vehicle: water): 104 % of control
- T/C (dose: 400.0 mg/kg/injection, schedule: Q01DX009 (ip), vehicle: water): 101 % of control

SMILES: Cc1ccc(C2(C(=O)O)CC2)cc1
- T/C [10]: 100 % of control
- T/C (dose: 200.0 mg/kg/injection, schedule: Q01DX009 (ip), vehicle: saline with Tween-80): 97 % of control
- T/C (dose: 400.0 mg/kg/injection, schedule: Q01DX009 (ip), vehicle: saline with Tween-80): 94 % of control

SMILES: CNC1CC2CCC1(C)C2(C)C (stereo unspecified)
- T/C (dose: 100.0 mg/kg/injection, schedule: Q04DX002 (ip), vehicle: saline): 96 % of control

SMILES: N#CC(Cc1ccccc1)(c1ccccc1)c1ccccc1
- T/C [11]: 112 % of control
- T/C [12]: 114 % of control
- T/C [13]: 89 % of control
- T/C [14]: 97 % of control

SMILES: Cc1cccc(NCC(=O)NN)c1C
- T/C (dose: 50.0 mg/kg/injection, schedule: Q01DX009 (ip), vehicle: carboxymethylcellulose (CMC)): 102 % of control and 104 % of control
- T/C (dose: 50.0 mg/kg/injection, schedule: Q04DX002 (ip), vehicle: carboxymethylcellulose (CMC)): 96 % of control and 101 % of control
- T/C (dose: 50.0 mg/kg/injection, schedule: Q04DX003 (ip), vehicle: carboxymethylcellulose (CMC)): 102 % of control
- T/C (dose: 100.0 mg/kg/injection, schedule: Q01DX009 (ip), vehicle: carboxymethylcellulose (CMC)): 104 % of control and 106 % of control
- T/C (dose: 100.0 mg/kg/injection, schedule: Q04DX002 (ip), vehicle: carboxymethylcellulose (CMC)): 101 % of control and 103 % of control
- T/C (dose: 100.0 mg/kg/injection, schedule: Q04DX003 (ip), vehicle: carboxymethylcellulose (CMC)): 102 % of control
- T/C (dose: 200.0 mg/kg/injection, schedule: Q01DX009 (ip), vehicle: carboxymethylcellulose (CMC)): 97 % of control
- T/C (dose: 200.0 mg/kg/injection, schedule: Q04DX002 (ip), vehicle: Klucel (hydroxypropylcellulose) (HPC)): 92 % of control
- T/C (dose: 200.0 mg/kg/injection, schedule: Q04DX002 (ip), vehicle: carboxymethylcellulose (CMC)): 104 % of control and 107 % of control
- T/C (dose: 200.0 mg/kg/injection, schedule: Q04DX003 (ip), vehicle: carboxymethylcellulose (CMC)): 90 % of control
- T/C (dose: 400.0 mg/kg/injection, schedule: Q04DX002 (ip), vehicle: Klucel (hydroxypropylcellulose) (HPC)): 113 % of control

SMILES: CCCCCCCCCCCCCC(=O)O (tested in a mixture with another compound)
- T/C (dose: 5.0 mg/kg/injection, schedule: Q01DX001 (ip), vehicle: saline): 101 % of control
- T/C (dose: 10.0 mg/kg/injection, schedule: Q01DX001 (ip), vehicle: saline): 95 % of control
- T/C (dose: 20.0 mg/kg/injection, schedule: Q01DX001 (ip), vehicle: saline): 102 % of control
- T/C (dose: 40.0 mg/kg/injection, schedule: Q01DX001 (ip), vehicle: saline): 102 % of control
- T/C (dose: 80.0 mg/kg/injection, schedule: Q01DX001 (ip), vehicle: saline): 90 % of control
- T/C [12]: 98 % of control

SMILES: CCN(CC)CCCC(Nc1c2ccc(Cl)cc2nc2ccc(OC)cc12)c1ccc(F)cc1 (stereo unspecified)
- T/C (dose: 9.0 mg/kg/injection, schedule: Q01DX Z (ip), vehicle: methylcellulose (MC)): 86 % of control
- T/C (dose: 15.0 mg/kg/injection, schedule: Q01DX Z (ip), vehicle: methylcellulose (MC)): 95 % of control
- T/C (dose: 20.0 mg/kg/injection, schedule: Q01DX Z (ip), vehicle: methylcellulose (MC)): 86 % of control
- T/C (dose: 30.0 mg/kg/injection, schedule: Q01DX Z (ip), vehicle: methylcellulose (MC)): 89 % of control

SMILES: CN(C)Cc1c(Cl)cccc1C(O)c1ccccc1 (stereo unspecified)
- T/C [11]: 96 % of control
- T/C [12]: 106 % of control
- T/C [13]: 106 % of control
- T/C [14]: 95 % of control

SMILES: C/C(=N/NC(=O)C1CCCO1)c1ccc(C)cc1 (stereo unspecified)
- T/C [15]: 104 % of control
- T/C [16]: 102 % of control

SMILES: NCCCNc1ccccc1
- T/C (dose: 100.0 mg/kg/injection, schedule: Q01DX009 (ip), vehicle: saline): 92 % of control
- T/C (dose: 200.0 mg/kg/injection, schedule: Q01DX009 (ip), vehicle: saline): 98 % of control

SMILES: COC(=O)/C(=C1/OC(=O)C(c2ccccc2)=C1O)c1ccccc1
- T/C (dose: 25.0 mg/kg/injection, schedule: Q01DX009 (ip), vehicle: saline with Tween-80): 93 % of control
- T/C (dose: 50.0 mg/kg/injection, schedule: Q01DX009 (ip), vehicle: saline with Tween-80): 95 % of control
- T/C [10]: 93 % of control
- T/C (dose: 100.0 mg/kg/injection, schedule: Q04DX003 (ip), vehicle: saline with Tween-80): 100 % of control

SMILES: CC(=O)Nc1ccc(OC(=S)N(C)C)cc1
- T/C [8]: 96 % of control
- T/C [9]: 97 % of control
- T/C [17]: 101 % of control

SMILES: O=C1NC(C2CC3C=CC2C3)Nc2ccccc21 (stereo unspecified)
- T/C [15]: 100 % of control
- T/C (dose: 12.5 mg/kg/injection, schedule: Q04DX003 (ip), vehicle: Klucel (hydroxypropylcellulose) (HPC)): 111 % of control
- T/C [16]: 101 % of control
- T/C (dose: 25.0 mg/kg/injection, schedule: Q04DX003 (ip), vehicle: Klucel (hydroxypropylcellulose) (HPC)): 103 % of control
- T/C [5]: 96 % of control
- T/C [6]: 103 % of control

SMILES: C=CCSc1ccc(Cl)cc1
- T/C [12]: 105 % of control
- T/C [13]: 103 % of control

SMILES: CN(C)N=Nc1ccc(C(=O)N/N=C/c2ccc(I)cc2)cc1
- T/C (dose: 75.0 mg/kg/injection, schedule: Q04DX003 (ip), vehicle: Klucel (hydroxypropylcellulose) (HPC)): 101 % of control
- T/C (dose: 150.0 mg/kg/injection, schedule: Q04DX003 (ip), vehicle: Klucel (hydroxypropylcellulose) (HPC)): 97 % of control
- T/C (dose: 300.0 mg/kg/injection, schedule: Q04DX003 (ip), vehicle: Klucel (hydroxypropylcellulose) (HPC)): 89 % of control

SMILES: O=S(=O)(Cc1ccc(Cl)cc1)Cc1ccc(Cl)cc1
- T/C (dose: 100.0 mg/kg/injection, schedule: Q01DX009 (ip), vehicle: saline sonified): 93 % of control
- T/C [8]: 95 % of control
- T/C (dose: 200.0 mg/kg/injection, schedule: Q01DX009 (ip), vehicle: saline sonified): 93 % of control
- T/C [9]: 92 % of control
- T/C (dose: 400.0 mg/kg/injection, schedule: Q01DX009 (ip), vehicle: saline sonified): 93 % of control
- T/C [17]: 103 % of control

SMILES: CC1C(O)CN1C(C)(C)C (stereo unspecified)
- T/C [12]: 105 % of control
- T/C [13]: 106 % of control
- T/C [14]: 108 % of control

SMILES: O=C(O)c1ccc(Nc2c3ccccc3nc3ccccc23)cc1
- T/C [5]: 177 % of control
- T/C [7]: 243 % of control

SMILES: Cc1ccccc1CC#N
- T/C (dose: 6.25 mg/kg/injection, schedule: Q01DX009 (ip), vehicle: saline): 108 % of control
- T/C (dose: 12.5 mg/kg/injection, schedule: Q01DX009 (ip), vehicle: saline): 108 % of control
- T/C (dose: 25.0 mg/kg/injection, schedule: Q01DX009 (ip), vehicle: saline): 101 % of control

SMILES: CC(C)=CCC/C(C)=C/CC(N)Cc1ccccc1 (stereo unspecified)
- T/C [15]: 94 % of control
- T/C [16]: 97 % of control
- T/C [5]: 92 % of control
